Source: article PMC5958115, “A novel small molecule chaperone of rod opsin and its potential therapy for retinal degeneration” (Nature Communications, 2018)

Experiments:
[1] = Metabolic stability in mouse liver microsomes; type: in vitro ADME; conditions: 5 µM, NADPH, 37 °C
Method: A standard metabolic stability assay was performed in the presence of mouse or human liver microsomes. YC-001 (5 µM) was incubated with the microsomes (0.125 mg mL^−1) resuspended in 0.2 mL of PBS buffer, pH 7.4 composed of 10 mM Na2HPO4, 1.8 mM KH2PO4, 137 mM NaCl, and 2.7 mM KCl. The enzymatic reaction to produce oxidized metabolites was initiated by addition of NADPH (1 mM). Samples were incubated at 37 °C for up to 240 min. Incubation without the cofactor was conducted in parallel to assess NADPH-independent clearance. The reactions were stopped with 0.2 mL of methanol followed by 0.3 mL chloroform. Residual YC-001 was extracted by vigorous shaking. To facilitate phase separation, the samples were spun down for 2 min, 15,000×g. The chloroform fraction was collected, dried down, and the extracted organic compounds were redissolved in 0.2 mL of methanol. To quantify YC-001, the samples were injected onto an Eclipse XDB-C18 column (4.6 × 150 mm, 5 µm) (Agilent Technologies) equilibrated with solvent composed of 30% acetonitrile in water (v/v), and 0.1% formic acid. YC-001 was eluted in a gradient of acetonitrile in water (30–100%) developed within 15 min at a flow rate of 1 mL min^−1, detected at 350 nm, and quantified by correlating peak areas with known quantities of an original synthetic standard. […]

C57BL/6 mice = assay: Toxicity by daily i.p. injections, survival, behavior and body weight; type: in vivo; conditions: 200 and 100 mg kg^−1 bw daily i.p., day 14 to 38, vs DMSO
Method: To estimate the long-term toxicity of YC-001 in mice, we administered YC-001 to C57BL/6 mice by daily i.p. injections from Day 14 to 38 after birth with one of two doses, either 100 mg kg^−1 or 200 mg kg^−1 bw. Equivalent volumes of DMSO were injected into control groups. Body weights of treated mice were measured daily. Each dosage group contained three mice including males and females.

ovine COX-1 = biological target: T1, ovine COX-1 (Ovis aries, UniProt P05979); assay: COX-1 activity assay (fluorometric); type: biochemical; conditions: up to 80 µM
T1 construct: purchased Abcam
T1 sequence (P05979 25-600): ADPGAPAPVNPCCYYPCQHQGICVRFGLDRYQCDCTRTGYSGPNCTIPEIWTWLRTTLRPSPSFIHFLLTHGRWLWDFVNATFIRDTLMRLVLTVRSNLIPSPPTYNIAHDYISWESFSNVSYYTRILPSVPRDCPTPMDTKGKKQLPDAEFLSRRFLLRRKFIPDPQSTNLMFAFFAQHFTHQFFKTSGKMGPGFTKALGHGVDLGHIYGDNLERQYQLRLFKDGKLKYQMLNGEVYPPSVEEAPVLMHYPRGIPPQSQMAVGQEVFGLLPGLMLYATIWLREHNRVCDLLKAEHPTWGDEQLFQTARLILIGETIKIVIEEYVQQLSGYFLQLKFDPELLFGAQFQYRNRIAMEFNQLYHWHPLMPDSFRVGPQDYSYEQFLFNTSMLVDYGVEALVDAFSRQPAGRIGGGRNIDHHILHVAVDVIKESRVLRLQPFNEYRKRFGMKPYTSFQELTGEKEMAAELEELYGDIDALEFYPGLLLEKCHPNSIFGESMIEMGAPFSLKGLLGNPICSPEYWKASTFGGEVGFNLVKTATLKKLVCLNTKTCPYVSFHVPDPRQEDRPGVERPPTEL
Method: The effect of the compound YC-001 on COX-1 activity was evaluated using the COX-1 Inhibitor Screening Kit (Abcam, Cambridge, MA, USA) according to the manufacture’s protocol. Briefly, the assay is based on the fluorometric detection of Prostaglandin G2, the intermediate product generated by the COX-1 enzyme. COX reaction mix included ovine COX-1, COX probe, and COX cofactor was prepared in a 96-well plate. YC-001 working solutions were dissolved in DMSO, and then mixed with COX Reaction Mix to the final concentrations (80, 40, 20, 10, 5, 2.5, 1.25, 0.625, 0.312, 0.156, 0.078 and 0.039 µM). Equivalent volume of DMSO was used as vehicle control and SC560 was used as a positive control. All controls and samples were measured in triplicate. Then arachidonic acid was added into each well to initiate all the reactions at the same time. The fluorescence was measured at Ex/Em = 535/587 nm in a kinetic mode for 15 min at 25 °C. Five time points were chosen in the linear range of the plot and the corresponding values for the fluorescence were used to calculate the slope of the linear regression equation. Relative COX-1 activity was calculated as Eq. 5: RelativeCOX-1Activity(%)=Slopeofsample/Slopeofenzymecontrol×100 .

[2] = design: method as in PubChem database, CID 2377702; conditions: ref PubChem database, CID 2377702; cited from earlier work
[3] = Pharmacokinetics of YC-001 in mouse plasma; type: in vivo, C57BL/6 mice
Method: C57BL/6J mice ranging from 8 to 12 weeks of age were purchased from Jackson Labs. For administration, YC-001 was dissolved in DMSO at 160 mg mL^−1. To obtain the blood clearance curve for YC-001, each animal was treated by i.p. injection of YC-001 at 200 mg kg^−1 bw. After administration, blood was collected at 5, 10, 15, 20, 30, 45, 60, and 90 min from the orbital sinus and dropped into K2EDTA blood collection tubes (FisherScientific). Mice were anesthetized with a ketamine/xylazine cocktail two min before blood collection. The blood samples were then incubated at 4 °C for 2 h before centrifugation at 1800×g for 20 min to collect the plasma in the supernatant. Plasma was mixed with twice the volume of methanol and then stored at −80 °C. YC-001 was extracted from the samples (300 to 600 μL) with 0.6 mL chloroform. The chloroform fraction was collected, dried, and the extracted organic compounds were dissolved in 0.25 mL of methanol. One hundred µL of each sample was injected onto an Eclipse XDB-C18 column (4.6 × 150 mm, 5 µm) and YC-001 was detected and quantified as described in the section Metabolic stability of YC-001.

With `O=C1OCC(c2ccc(Cl)s2)=C1c1cccs1` [YC-001] the “initial clearance in liver microsomes” value [1] was “even higher initial clearance compared to the fast clearance drug, verapamil”, the “behavioral or bw growth changes” value (C57BL/6 mice) was “no obvious behavioral or bw growth changes” and the COX-1 enzymatic activity (ovine COX-1) was “did not see changes”. The “activity in 8 other bioassays” value [2] was “no known activities”, the k el ([3]; C57BL/6J, mouse, plasma, intraperitoneal, 200 mg kg^−1 bw, estimated from T1/2 and C0, read-out: elimination rate constant (Ke) (converted)) was 0.000335 s⁻¹ and the C0 ([3]; C57BL/6J, mouse, plasma, ip, i.p. 200 mg kg^−1 bw, read-out: initial plasma concentration (C0)) was 7280 ng/mL. For the same compound, the half-life ([3]; C57BL/6J, mouse, plasma, ip, i.p. 200 mg kg^−1 bw, read-out: plasma half-life (T1/2)) was 34.5 min, the clearance ([3]; estimated from T1/2 and C0) was 0.552 L min^−1 kg^−1 bw and the “volume of distribution (Vd)” value ([3]; estimated from T1/2 and C0) was 27.5 L kg^−1 bw.
